Laboratory results as given in ChEMBL document CHEMBL5532741, “Novel 2,4-Dichloro-5-sulfamoylbenzoic Acid Oxime Esters: First Studies as Potential Human Carbonic Anhydrase Inhibitors” (ACS Med Chem Lett, 2024).
Activity calls are given as the source filed them. The rule behind the calls is not given here.

Assays:
Homo sapiens [1] = species: Homo sapiens; assay: Selectivity index, ratio of Ki for recombinant human CA9 to Ki for recombinant human CA2
Homo sapiens [2] = species: Homo sapiens; assay: Selectivity index, ratio of Ki for recombinant human CA12 to Ki for recombinant human CA2
MDA-MB-231 [3] = assay: Antiproliferative activity against human MDA-MB-231 cells measured after 72 hrs by cell counting kit 8 method; format: functional, cell-based; details: MDA-MB-231, 72 h
MDA-MB-231 [4] = assay: Antiproliferative activity against human MDA-MB-231 cells at high concentration measured after 72 hrs by cell counting kit 8 method; format: functional, cell-based

IC50 (MDA-MB-231 [3]) | Structure (SMILES) | also measured
 | NS(=O)(=O)c1cc(C(=O)O)c(Cl)cc1Cl | Ratio Ki (Homo sapiens [1]): 7.9; Ratio Ki (Homo sapiens [2]): 22.7
108 µM | COc1cccc(OC)c1/C=N/OC(=O)c1cc(S(N)(=O)=O)c(Cl)cc1Cl | 
113 µM | COc1ccc(/C=N/OC(=O)c2cc(S(N)(=O)=O)c(Cl)cc2Cl)c(OC)c1OC | 
 | NS(=O)(=O)c1cc(C(=O)O/N=C/c2ccccc2)c(Cl)cc1Cl | Activity (MDA-MB-231 [4]): inactive
18.2 µM | NS(=O)(=O)c1ccc(NC(=O)Nc2ccc(F)cc2)cc1 [SLC-0111] | 
